Results taken from PMC4051630, “A Comparison of Protein Kinases Inhibitor Screening Methods Using Both Enzymatic Activity and Binding Affinity Determination” (PLoS ONE, 2014).

Columns and labels:
Assay in all cases: Differential Scanning Fluorimetry (DSF) Tm shift
Type in all cases: binding
[1] = molecular target: SRC Catalytic Domain+SH2+SH3 (Homo sapiens, UniProt P12931); conditions: 2 µM protein, 10 µM inhibitor, average of 3 experiments, each in duplicate
[2] = molecular target: T1, PAK7 Catalytic Domain (Homo sapiens, UniProt Q9P286); conditions: 2 µM protein, 10 µM inhibitor, average of 3 experiments, each in duplicate
T1 construct: For all of them, we expressed and purified the catalytic domain separately; His-tag; made in house; host or cells: Escherichia coli
T1 sequence (Q9P286 449-700 limits assumed): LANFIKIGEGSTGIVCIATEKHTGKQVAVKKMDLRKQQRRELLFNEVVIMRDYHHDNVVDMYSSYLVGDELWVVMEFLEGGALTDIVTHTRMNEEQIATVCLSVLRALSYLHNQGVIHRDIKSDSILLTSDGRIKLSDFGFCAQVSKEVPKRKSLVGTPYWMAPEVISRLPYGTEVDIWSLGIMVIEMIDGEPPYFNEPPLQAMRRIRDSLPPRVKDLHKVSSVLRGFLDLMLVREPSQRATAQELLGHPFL

[3] = molecular target: T2, PAK4 Catalytic Domain (Homo sapiens, UniProt O96013); conditions: 2 µM protein, 10 µM inhibitor, average of 3 experiments, each in duplicate
T2 construct: For all of them, we expressed and purified the catalytic domain separately; His-tag; made in house; host or cells: Escherichia coli
T2 sequence (O96013 321-572 limits assumed): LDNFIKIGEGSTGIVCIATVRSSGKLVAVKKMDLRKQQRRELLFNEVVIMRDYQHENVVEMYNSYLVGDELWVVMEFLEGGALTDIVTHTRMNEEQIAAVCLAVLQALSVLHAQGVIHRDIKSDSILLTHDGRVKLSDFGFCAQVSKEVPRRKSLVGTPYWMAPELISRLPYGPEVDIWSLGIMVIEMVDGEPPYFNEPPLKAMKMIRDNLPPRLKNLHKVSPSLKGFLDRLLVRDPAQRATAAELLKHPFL

[4] = molecular target: T3, CDK2 + Cyclin A (Homo sapiens, UniProt P24941); conditions: CDK2 + Cyclin A; 2 µM protein, 10 µM inhibitor; average of 3 experiments, each in duplicate
T3 construct: CDK2 (P24941); 1–299; His-tag; made in house; host or cells: Escherichia coli

[5] = molecular target: T4, CDK2 + Cyclin E (Homo sapiens, UniProt P24941); conditions: CDK2 + Cyclin E; 2 µM protein, 10 µM inhibitor; average of 3 experiments, each in duplicate
T4 construct: CDK2 (P24941); 1–299; His-tag; made in house; host or cells: Escherichia coli

[6] = molecular target: T5, DMPK Catalytic Domain (Homo sapiens, UniProt Q09013); conditions: 2 µM protein, 10 µM inhibitor, average of 3 experiments, each in duplicate
T5 construct: For all of them, we expressed and purified the catalytic domain separately; His-tag; made in house; host or cells: Escherichia coli
T5 sequence (Q09013 71-339 limits assumed): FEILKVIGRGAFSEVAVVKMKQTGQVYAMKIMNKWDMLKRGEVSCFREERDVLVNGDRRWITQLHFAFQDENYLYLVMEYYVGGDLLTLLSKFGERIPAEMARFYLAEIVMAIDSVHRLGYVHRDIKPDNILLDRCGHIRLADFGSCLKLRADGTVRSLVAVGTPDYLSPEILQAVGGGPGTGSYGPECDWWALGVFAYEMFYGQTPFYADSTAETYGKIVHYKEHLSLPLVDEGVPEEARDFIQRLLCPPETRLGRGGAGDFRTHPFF

[7] = molecular target: T6, FES Catalytic Domain+SH2 (Homo sapiens, UniProt P07332); conditions: 2 µM protein, 10 µM inhibitor, average of 3 experiments, each in duplicate
T6 construct: for 8, we also made a longer version containing one or more additional domains; His-tag; made in house; host or cells: Escherichia coli
T6 sequence (P07332 448-822 limits assumed): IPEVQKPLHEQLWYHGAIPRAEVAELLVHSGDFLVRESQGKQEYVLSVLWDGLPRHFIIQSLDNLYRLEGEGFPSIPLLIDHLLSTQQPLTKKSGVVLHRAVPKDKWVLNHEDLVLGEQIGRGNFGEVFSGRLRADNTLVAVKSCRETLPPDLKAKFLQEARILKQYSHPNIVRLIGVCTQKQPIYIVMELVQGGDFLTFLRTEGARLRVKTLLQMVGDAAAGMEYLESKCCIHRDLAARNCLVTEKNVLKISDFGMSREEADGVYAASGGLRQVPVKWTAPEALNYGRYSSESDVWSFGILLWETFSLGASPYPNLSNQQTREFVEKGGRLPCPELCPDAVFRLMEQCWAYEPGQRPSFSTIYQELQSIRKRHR

[8] = molecular target: T7, FES Catalytic Domain (Homo sapiens, UniProt P07332); conditions: 2 µM protein, 10 µM inhibitor, average of 3 experiments, each in duplicate
T7 construct: For all of them, we expressed and purified the catalytic domain separately; His-tag; made in house; host or cells: Escherichia coli
T7 sequence (P07332 561-822 limits assumed): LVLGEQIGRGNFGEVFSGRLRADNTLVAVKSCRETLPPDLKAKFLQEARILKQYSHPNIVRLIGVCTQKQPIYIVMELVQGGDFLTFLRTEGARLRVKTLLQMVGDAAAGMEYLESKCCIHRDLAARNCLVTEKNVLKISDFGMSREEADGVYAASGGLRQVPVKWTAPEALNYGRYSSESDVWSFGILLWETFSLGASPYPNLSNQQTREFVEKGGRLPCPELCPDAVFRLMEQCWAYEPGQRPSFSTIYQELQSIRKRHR

[9] = molecular target: T8, AKT3 Catalytic Domain (Homo sapiens, UniProt Q9Y243); conditions: 2 µM protein, 10 µM inhibitor, average of 3 experiments, each in duplicate
T8 construct: AKT3 (Q9Y243); CD; His-tag; made in house; host or cells: Escherichia coli
T8 sequence (Q9Y243 122-479): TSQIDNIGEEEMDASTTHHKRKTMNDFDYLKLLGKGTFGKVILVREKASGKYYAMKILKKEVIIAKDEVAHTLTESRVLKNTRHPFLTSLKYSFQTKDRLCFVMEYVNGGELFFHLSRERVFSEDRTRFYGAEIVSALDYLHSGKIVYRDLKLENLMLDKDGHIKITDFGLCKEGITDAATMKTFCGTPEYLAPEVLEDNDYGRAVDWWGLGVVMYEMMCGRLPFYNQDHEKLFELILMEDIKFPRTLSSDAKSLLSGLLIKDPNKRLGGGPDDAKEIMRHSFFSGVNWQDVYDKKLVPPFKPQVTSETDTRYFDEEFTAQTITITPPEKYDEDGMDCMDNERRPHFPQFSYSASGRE

[10] = molecular target: T9, CHK2 Catalytic Domain (Homo sapiens, UniProt O96017); conditions: 2 µM protein, 10 µM inhibitor, average of 3 experiments, each in duplicate
T9 construct: For all of them, we expressed and purified the catalytic domain separately; His-tag; made in house; host or cells: Escherichia coli
T9 sequence (O96017 220-486 limits assumed): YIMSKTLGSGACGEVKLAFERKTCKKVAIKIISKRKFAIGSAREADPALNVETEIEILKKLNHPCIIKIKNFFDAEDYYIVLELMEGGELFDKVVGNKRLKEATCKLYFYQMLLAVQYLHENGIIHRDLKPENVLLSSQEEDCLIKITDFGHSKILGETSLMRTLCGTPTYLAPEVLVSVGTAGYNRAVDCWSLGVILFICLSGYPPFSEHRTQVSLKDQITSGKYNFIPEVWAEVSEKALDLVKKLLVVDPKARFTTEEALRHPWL

[11] = molecular target: T10, PAK4 Catalytic Domain+PBD (Homo sapiens, UniProt O96013); conditions: 2 µM protein, 10 µM inhibitor, average of 3 experiments, each in duplicate
T10 construct: for 8, we also made a longer version containing one or more additional domains; His-tag; made in house; host or cells: Escherichia coli
T10 sequence (O96013 whole entry, the tested form may be a part): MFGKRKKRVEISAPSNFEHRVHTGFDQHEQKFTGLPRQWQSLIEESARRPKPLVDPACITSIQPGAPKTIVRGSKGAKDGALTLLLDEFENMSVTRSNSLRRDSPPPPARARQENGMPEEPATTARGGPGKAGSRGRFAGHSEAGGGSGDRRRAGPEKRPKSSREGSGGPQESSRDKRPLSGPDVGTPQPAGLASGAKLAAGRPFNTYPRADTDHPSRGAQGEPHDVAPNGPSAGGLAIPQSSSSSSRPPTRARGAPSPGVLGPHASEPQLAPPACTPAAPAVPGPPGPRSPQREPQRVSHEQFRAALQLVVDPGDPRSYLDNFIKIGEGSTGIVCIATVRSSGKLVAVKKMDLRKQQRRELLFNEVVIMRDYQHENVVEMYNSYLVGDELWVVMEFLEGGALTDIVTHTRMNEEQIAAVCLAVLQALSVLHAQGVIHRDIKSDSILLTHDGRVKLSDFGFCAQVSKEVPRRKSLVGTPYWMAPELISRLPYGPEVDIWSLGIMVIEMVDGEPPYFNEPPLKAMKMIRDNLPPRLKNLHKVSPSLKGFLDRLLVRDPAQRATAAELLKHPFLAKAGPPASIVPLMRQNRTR

[12] = molecular target: T11, STK3 Catalytic domain+SARAH (Homo sapiens, UniProt Q13188); conditions: 2 µM protein, 10 µM inhibitor, average of 3 experiments, each in duplicate
T11 construct: for 8, we also made a longer version containing one or more additional domains; His-tag; made in house; host or cells: Escherichia coli
T11 sequence (Q13188 1-491): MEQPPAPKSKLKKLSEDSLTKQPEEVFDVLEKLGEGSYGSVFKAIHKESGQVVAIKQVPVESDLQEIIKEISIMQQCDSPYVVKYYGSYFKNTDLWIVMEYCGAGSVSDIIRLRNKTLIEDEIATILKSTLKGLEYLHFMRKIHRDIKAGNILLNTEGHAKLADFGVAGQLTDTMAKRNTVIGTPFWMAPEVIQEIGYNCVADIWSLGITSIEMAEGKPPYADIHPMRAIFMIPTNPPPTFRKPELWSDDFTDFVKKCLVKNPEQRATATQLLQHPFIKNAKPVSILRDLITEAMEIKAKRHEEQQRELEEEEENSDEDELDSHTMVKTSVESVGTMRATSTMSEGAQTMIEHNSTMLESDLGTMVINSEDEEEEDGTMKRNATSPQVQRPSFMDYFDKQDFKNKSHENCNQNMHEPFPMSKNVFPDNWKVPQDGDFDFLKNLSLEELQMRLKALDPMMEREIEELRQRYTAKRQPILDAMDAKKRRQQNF

[13] = molecular target: T12, FAK2 Catalytic Domain (Homo sapiens, UniProt Q14289); conditions: 2 µM protein, 10 µM inhibitor, average of 3 experiments, each in duplicate
T12 construct: For all of them, we expressed and purified the catalytic domain separately; His-tag; made in house; host or cells: Escherichia coli
T12 sequence (Q14289 425-683 limits assumed): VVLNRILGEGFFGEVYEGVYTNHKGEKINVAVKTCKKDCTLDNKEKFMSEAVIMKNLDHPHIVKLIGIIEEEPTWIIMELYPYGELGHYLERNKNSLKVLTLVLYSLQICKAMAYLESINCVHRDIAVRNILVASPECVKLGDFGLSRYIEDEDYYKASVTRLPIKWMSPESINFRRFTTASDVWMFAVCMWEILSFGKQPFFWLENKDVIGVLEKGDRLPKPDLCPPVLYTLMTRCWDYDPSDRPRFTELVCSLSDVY

[14] = molecular target: T13, STK3 Catalytic Domain (Homo sapiens, UniProt Q13188); conditions: 2 µM protein, 10 µM inhibitor, average of 3 experiments, each in duplicate
T13 construct: For all of them, we expressed and purified the catalytic domain separately; His-tag; made in house; host or cells: Escherichia coli
T13 sequence (Q13188 27-278 limits assumed): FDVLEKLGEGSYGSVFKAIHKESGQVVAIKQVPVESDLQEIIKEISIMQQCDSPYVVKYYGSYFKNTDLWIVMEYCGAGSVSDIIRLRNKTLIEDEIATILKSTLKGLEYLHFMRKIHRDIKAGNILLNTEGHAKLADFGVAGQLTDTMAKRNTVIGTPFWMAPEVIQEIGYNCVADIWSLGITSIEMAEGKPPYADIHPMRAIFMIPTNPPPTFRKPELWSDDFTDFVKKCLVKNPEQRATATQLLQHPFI

[15] = molecular target: SRC Catalytic Domain (Homo sapiens, UniProt P12931); set-up: For all of them, we expressed and purified the catalytic domain separately; His-tag; made in house; host or cells: Escherichia coli; conditions: 2 µM protein, 10 µM inhibitor, average of 3 experiments, each in duplicate
Chain of SRC Catalytic Domain (P12931 270-523 limits assumed): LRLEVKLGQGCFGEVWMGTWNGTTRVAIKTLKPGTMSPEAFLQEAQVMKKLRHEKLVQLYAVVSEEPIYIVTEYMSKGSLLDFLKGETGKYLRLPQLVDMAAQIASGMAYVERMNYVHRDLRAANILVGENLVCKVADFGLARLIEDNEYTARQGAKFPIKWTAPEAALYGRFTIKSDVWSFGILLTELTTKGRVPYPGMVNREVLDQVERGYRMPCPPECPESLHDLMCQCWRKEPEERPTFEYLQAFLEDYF

Chain of SRC Catalytic Domain+SH2+SH3 (P12931 84-523 limits assumed): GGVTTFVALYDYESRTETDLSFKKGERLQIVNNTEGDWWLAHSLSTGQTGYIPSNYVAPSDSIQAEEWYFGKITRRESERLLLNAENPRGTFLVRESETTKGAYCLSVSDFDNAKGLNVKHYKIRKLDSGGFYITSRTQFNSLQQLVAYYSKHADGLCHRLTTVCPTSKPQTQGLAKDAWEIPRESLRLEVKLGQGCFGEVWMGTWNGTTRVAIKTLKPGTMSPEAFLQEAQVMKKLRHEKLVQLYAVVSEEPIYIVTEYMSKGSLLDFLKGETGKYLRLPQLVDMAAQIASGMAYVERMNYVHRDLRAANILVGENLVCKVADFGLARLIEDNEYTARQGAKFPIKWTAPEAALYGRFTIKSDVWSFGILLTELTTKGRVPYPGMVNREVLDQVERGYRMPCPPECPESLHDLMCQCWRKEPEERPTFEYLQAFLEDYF

SMILES | Melting temperature (Tm) shift [1] [degrees Celcius] | Melting temperature (Tm) shift [2] [degrees Celcius] | Melting temperature (Tm) shift [3] [degrees Celcius] | Melting temperature (Tm) shift [4] [degrees Celcius] | Melting temperature (Tm) shift [5] [degrees Celcius] | Melting temperature (Tm) shift [6] [degrees Celcius] | Melting temperature (Tm) shift [7] [degrees Celcius] | Melting temperature (Tm) shift [8] [degrees Celcius] | Melting temperature (Tm) shift [9] [degrees Celcius] | Melting temperature (Tm) shift [10] [degrees Celcius] | Melting temperature (Tm) shift [11] [degrees Celcius] | Melting temperature (Tm) shift [12] [degrees Celcius] | Melting temperature (Tm) shift [13] [degrees Celcius] | Melting temperature (Tm) shift [14] [degrees Celcius] | Melting temperature (Tm) shift [15] [degrees Celcius]
Nc1ncnc2c1c(I)cn2[C@@H]1O[C@H](CO)[C@@H](O)[C@H]1O [5-Iodotubercidin] | 0.1 | 0.4 | 0.7 | 2.5 | 1.3 | 0.2 | 0.0 | 1.0 | 0.0 | 0.6 | 0.7 | 1.5 | 0.4 | 3.0 | –
Cl.NCCCn1cc(C2=C(c3c[nH]c4ccccc34)C(=O)NC2=O)c2ccccc21 [Bisindolylmaleimide III, Hydrochloride] | 0.0 | 1.1 | 1.4 | 2.1 | 0.7 | 4.2 | 0.5 | 0.8 | 0.6 | 5.6 | 1.6 | 4.6 | 0.7 | 1.8 | –
Cl.Cl.O=S(=O)(NCCNC/C=C/c1ccc(Br)cc1)c1cccc2cnccc12 [H-89, Dihydrochloride] | 0.0 | 0.3 | 0.4 | 0.5 | 0.3 | 0.0 | 0.2 | 0.4 | 0.3 | 0.5 | 0.0 | 0.4 | 0.8 | 0.0 | –
N#CC(c1ccnc(NCCc2cccnc2)n1)c1nc2ccccc2s1 (stereo not drawn) [JNK Inhibitor V] | 0.1 | 0.0 | 0.1 | 0.2 | 0.3 | 0.8 | 0.0 | – | 0.0 | 0.3 | 0.1 | 0.3 | 0.4 | 0.2 | –
Nc1ncnc2c1c(-c1ccc(Oc3ccccc3)cc1)cn2C1CCCC1 [Lck Inhibitor] | 6.4 | 0.0 | – | – | – | – | 0.3 | 0.7 | – | 2.2 | – | 0.2 | – | 1.3 | 9.4
